Tested on: keratinocyte cell line (Hacat)
Assay: Wound healing efficacy: scratch assay on a keratinocyte monolayer culture
Assay type: cell-based
Experimental: Wound healing efficacy is determined by incubating a monolayer cell culture with ZBA.
Briefly, a keratinocyte cell line (Hacat) was cultured with full confluency in a 24 well plate. The cells are then scratched horizontally and vertically with a pipet tips to generate a wound. The cells are washed twice with 1 mL of PBS buffer, then full culture medium (supplemented with 10% FBS and 1% antibiotic) is added to the scratched cells. The ZBA solution obtained from Example 1 is diluted with full culture medium at a concentration of 5 ppm or 50 ppm. Culture wells are incubated at 37° C. at 5% CO2 for up to 72 hours with either the ZBA medium mixture or with medium alone. The area of the scratches is then compared by light microscopy at different time points up to 72 hrs.

[1] = ZBA solution diluted in full culture medium at 5 ppm or 50 ppm, 37° C., 5% CO2, up to 72 hours, light microscopy

## [Zn(Arginine)2Cl]^+Cl^− [ZBA]
[1]
  cell migration into the scratch wound compared to medium alone: greater cell migration
  cell proliferation compared to medium alone: faster proliferation
In the presence of ZBA, up to 72 hours
  morphology of the cells adjacent to the wound: improved
